Tested on: pro-collagen I in normal human fibroblasts
Assay: Pro-collagen I content of normal human fibroblasts cultivated in a monolayer (Elisa on cell lysates)
Assay type: cell-based
Conditions: 10 ng/ml, 48 H incubation, p<0.05
Text: The influence of the product on the expression of pro-collagen I is investigated in a model of normal human fibroblasts cultivated in a monolayer. The pro-collagen I is quantified using an Elisa (Enzyme Linked ImmunoSorbent Assay) kit on cell lysates. Furthermore, the proteins contained in the cell lysates are quantified by a spectrocolorimetric method according to the Bradford method. Included in the study is a negative control, consisting of the culture medium, and a positive control, represented by TGF-β (Transforming Growth Factor β) containing 10 ng/ml.
Collagens of types I, II, […], IV and V are synthesized from precursor molecules called “pro-collagen”. […]
The fibroblasts are incubated for 48 hours at 37° C., under humid atmosphere and 5% CO2 in a culture medium alone or in the presence of a reference product or increasing concentrations of active ingredients in the test. After 48 H of incubation of the test product, the type I pro-collagen and the total proteins present in the cell lysates are quantified. The results are obtained as a quantity (ng) of pro-collagen of type I C-Peptide per quantity (μg) of total proteins of the cell layer (means+/−standard deviation, S.D.). The statistical significance (*) of the differences observed between the “control” condition and each “treated” condition is evaluated by a One Way ANOVA on Ranks analysis followed by a Dunn's test (*: p<0.05). […]

TGF-β was tested, and the “Increase of the intrafibroblastic content of type I pro-collagen” value was 25%.

From patent US20090297628A1, “Use of iron in the form of a stone extract as stimulus of the synthesis of collagen by skin fibroblasts” (GATTEFOSSE SAS, priority 2005, published 2009)
